Source: patent publication US6355799B1, “Substituted benzene compounds, process for their preparation, and herbicidal and defoliant compositions containing them” (ISK Americas Incorporated, priority 1997, dated 2002)

How the values were obtained:
Assay type in all cases: in vivo
[1] = test system: redroot pigweed (Amaranthus retroflexus, AMARE); experiment: Pre-emerge test, greenhouse herbicide activity screening; details: phytotoxicity rating 0-100, 14 days after application
Method in brief: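 Plants grown in 10 cm pots of sandy loam mix received acetone-dissolved compounds through a moving flat-fan nozzle. Doses ranged from 15 to 1000 g ai/ha. Pre-emerge pots were seeded one day earlier, post-emerge pots 8–21 days earlier. Fourteen days on, each pot was graded 0–100 for damage.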

[2] = test system: barnyardgrass (Echinochloa crus-galli, ECHCG); experiment: as above; details: phytotoxicity rating 0-100, 14 days after application
Method in brief: (§1)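 Herbicidal damage is scored 0 (none) to 100 (complete plant death) two weeks after a simulated field spray. Rates span 15–1000 g ai/ha, delivered in acetone at 187 l/ha. For post-emergence treatments, plants have 2–3 leaves and the spray carries 0.25% v/v non-ionic surfactant.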

[3] = test system: green foxtail (Setaria viridis, SETVI); experiment: as above; details: phytotoxicity rating 0-100, 14 days after application
Method in brief: as §1

[4] = test system: ivyleaf morningglory (Ipomoea hederacea, IPOHE); experiment: as above; details: phytotoxicity rating 0-100, 14 days after application
Method in brief: as §1

[5] = test system: johnsongrass (Sorghum halepense, SORHA); experiment: as above; details: phytotoxicity rating 0-100, 14 days after application
Method in brief: as §1

[6] = test system: lambsquarters (Chenopodium album, CHEAL); experiment: as above; details: phytotoxicity rating 0-100, 14 days after application
Method in brief: as §1

[7] = test system: large crabgrass (Digitaria sanguinalis, DIGSA); experiment: as above; details: phytotoxicity rating 0-100, 14 days after application
Method in brief: as §1

[8] = test system: sicklepod (Cassia obtusifolia, CASOB); experiment: as above; details: phytotoxicity rating 0-100, 14 days after application
Method in brief: as §1

[9] = test system: velvetleaf (Abutilon theophrasti, ABUTH); experiment: as above; details: phytotoxicity rating 0-100, 14 days after application
Method in brief: as §1

[10] = test system: field corn (Zea mays L., var. Dekalb 535, CORN); experiment: Pre-emerge test, crop safety; details: crop damage rating 0-100, 14 days after application
Method in brief: (§2)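 Sandy loam pots; pre-emerge: sown 1 d pre-spray, surface-watered after, then bottom-watered. Post-emerge: sown 8–21 d before, 2–3 leaf stage, + 0.25% v/v NIS, bottom-watered. Acetone, 187 l/ha track spray, 15–1000 g ai/ha. 0–100 injury score, day 14.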

[11] = test system: upland rice (Oryza sp., var. Tebonnet, RICE); experiment: Pre-emerge test, crop safety; details: crop damage rating 0-100, 14 days after application
Method in brief: as §2

[12] = test system: green foxtail (Setaria viridis, SETVI); experiment: Post-emerge test, greenhouse herbicide activity screening; details: post-emerge, 14 days after application, rating scale 0-100
Method in brief: (§3)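 Compounds in acetone were track-sprayed at 187 l/ha, 15–1000 g ai/ha, onto sandy loam pots. Pre-emerge seeds were sown one day before spraying, with surface watering afterwards. Post-emerge plants were at the 2–3 leaf stage and sprayed with 0.25% v/v non-ionic surfactant. Injury was rated 0–100 at 14 days.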

[13] = test system: ivyleaf morningglory (Ipomoea hederacea, IPOHE); experiment: as above; details: post-emerge, 14 days after application, rating scale 0-100
Method in brief: as §3

[14] = test system: johnsongrass (Sorghum halepense, SORHA); experiment: as above; details: post-emerge, 14 days after application, rating scale 0-100
Method in brief: as §3

[15] = test system: lambsquarters (Chenopodium album, CHEAL); experiment: as above; details: post-emerge, 14 days after application, rating scale 0-100
Method in brief: as §3

[16] = test system: large crabgrass (Digitaria sanguinalis, DIGSA); experiment: as above; details: post-emerge, 14 days after application, rating scale 0-100
Method in brief: as §3

[17] = test system: redroot pigweed (Amaranthus retroflexus, AMARE); experiment: as above; details: post-emerge, 14 days after application
Method in brief: as §3

[18] = test system: sicklepod (Cassia obtusifolia, CASOB); experiment: as above; details: post-emerge, 14 days after application, rating scale 0-100
Method in brief: as §3

[19] = test system: velvetleaf (Abutilon theophrasti, ABUTH); experiment: as above; details: post-emerge, 14 days after application, rating scale 0-100
Method in brief: as §3

[20] = test system: field corn (Zea mays L., var. Dekalb 535, CORN); experiment: Post-emerge test, crop safety; details: post-emerge, 14 days after application, rating scale 0-100
Method in brief: as §1

[21] = test system: upland rice (Oryza sp., var. Tebonnet, RICE); experiment: Post-emerge test, crop safety; details: post-emerge, 14 days after application, rating scale 0-100
Method in brief: as §1

In the case of COc1c(Cl)cc(F)c(-n2c(=O)cc(C(F)(F)F)n(C)c2=O)c1NC(=O)OCc1c(Cl)cccc1Cl [4-24], the “Pre-emerge Herbicidal Activity AMARE” value ([1]; 63 g ai/ha) is reported as 100, the “Pre-emerge Herbicidal Activity AMARE” value ([1]; 250 g ai/ha) is reported as 100 and the “Pre-emerge Herbicidal Activity ECHCG” value ([2]; 63 g ai/ha) is reported as 10. The “Pre-emerge Herbicidal Activity ECHCG” value ([2]; 250 g ai/ha) was 50, the “Pre-emerge Herbicidal Activity SETVI” value ([3]; 63 g ai/ha) was 90 and the “Pre-emerge Herbicidal Activity SETVI” value ([3]; 250 g ai/ha) was 100. The “Pre-emerge Herbicidal Activity IPOHE” value ([4]; 63 g ai/ha) was 20, the “Pre-emerge Herbicidal Activity IPOHE” value ([4]; 250 g ai/ha) was 30 and the “Pre-emerge Herbicidal Activity SORHA” value ([5]; 63 g ai/ha) was 10. The “Pre-emerge Herbicidal Activity SORHA” value ([5]; 250 g ai/ha) was 40, the “Pre-emerge Herbicidal Activity CHEAL” value ([6]; 63 g ai/ha) was 100 and the “Pre-emerge Herbicidal Activity CHEAL” value ([6]; 250 g ai/ha) was 100. The “Pre-emerge Herbicidal Activity DIGSA” value ([7]; 63 g ai/ha) was 30, the “Pre-emerge Herbicidal Activity DIGSA” value ([7]; 250 g ai/ha) was 70 and the “Pre-emerge Herbicidal Activity CASOB” value ([8]; 63 g ai/ha) was 0. For the same compound, the “Pre-emerge Herbicidal Activity CASOB” value ([8]; 250 g ai/ha) was 80, the “Pre-emerge Herbicidal Activity ABUTH” value ([9]; 63 g ai/ha) was 50 and the “Pre-emerge Herbicidal Activity ABUTH” value ([9]; 250 g ai/ha) was 100. For the same compound, the “Pre-emerge Herbicidal Activity CORN” value ([10]; 63 g ai/ha) was 0, the “Pre-emerge Herbicidal Activity CORN” value ([10]; 250 g ai/ha) was 5 and the “Pre-emerge Herbicidal Activity RICE” value ([11]; 63 g ai/ha) was 10. The “Pre-emerge Herbicidal Activity RICE” value ([11]; 250 g ai/ha) was 50, the “phytotoxicity rating SETVI” value ([12]; 63 g ai/ha) was 50 and the “phytotoxicity rating SETVI” value ([12]; 250 g ai/ha) was 80. For the same compound, the “phytotoxicity rating IPOHE” value ([13]; 63 g ai/ha) was 100, the “phytotoxicity rating IPOHE” value ([13]; 250 g ai/ha) was 100 and the “phytotoxicity rating SORHA” value ([14]; 63 g ai/ha) was 40. For the same compound, the “phytotoxicity rating SORHA” value ([14]; 250 g ai/ha) was 60, the “phytotoxicity rating CHEAL” value ([15]; 63 g ai/ha) was 100 and the “phytotoxicity rating CHEAL” value ([15]; 250 g ai/ha) was 100. For the same compound, the “phytotoxicity rating DIGSA” value ([16]; 63 g ai/ha) was 40, the “phytotoxicity rating DIGSA” value ([16]; 250 g ai/ha) was 50 and the “phytotoxicity rating AMARE” value ([17]; 63 g ai/ha, rating scale 0-100 (0 no damage, 100 complete death)) was 100. The “phytotoxicity rating AMARE” value ([17]; 250 g ai/ha, rating scale 0-100) was 100, the “phytotoxicity rating CASOB” value ([18]; 63 g ai/ha) was 70 and the “phytotoxicity rating CASOB” value ([18]; 250 g ai/ha) was 100. The “phytotoxicity rating ABUTH” value ([19]; 63 g ai/ha) was 100, the “phytotoxicity rating ABUTH” value ([19]; 250 g ai/ha) was 100 and the “phytotoxicity rating CORN (crop damage)” value ([20]; 63 g ai/ha) was 35. For the same compound, the “phytotoxicity rating CORN (crop damage)” value ([20]; 250 g ai/ha) was 70, the “phytotoxicity rating RICE (crop damage)” value ([21]; 63 g ai/ha) was 20 and the “phytotoxicity rating RICE (crop damage)” value ([21]; 250 g ai/ha) was 45.
